Reference: paper PMC3260207, “Site-Directed Mutations and the Polymorphic Variant Ala160Thr in the Human Thromboxane Receptor Uncover a Structural Role for Transmembrane Helix 4” (PLoS ONE, 2012)
Substitutions are numbered along the chain they refer to. Values joined by “and” are separate entries in the source; they are usually repeats but may differ in a detail not shown here. Identical values can stand only once.

Tests used:
Test in all cases: Intracellular calcium mobilization (Fluo-4NW) in transfected HEK293T cells
Assay type in all cases: cell-based
Details in all cases: read-out: EC50 of agonist U46619 (calcium mobilized), transiently transfected HEK293T cells, mean ± S.E
TP A160S mutant = molecular target: T1, TP A160S mutant (Homo sapiens, UniProt P21731, A160S)
T1 construct: expressed in transfected cells; HEK293T (calcium assays)
T1 sequence (P21731 1-343 A160S): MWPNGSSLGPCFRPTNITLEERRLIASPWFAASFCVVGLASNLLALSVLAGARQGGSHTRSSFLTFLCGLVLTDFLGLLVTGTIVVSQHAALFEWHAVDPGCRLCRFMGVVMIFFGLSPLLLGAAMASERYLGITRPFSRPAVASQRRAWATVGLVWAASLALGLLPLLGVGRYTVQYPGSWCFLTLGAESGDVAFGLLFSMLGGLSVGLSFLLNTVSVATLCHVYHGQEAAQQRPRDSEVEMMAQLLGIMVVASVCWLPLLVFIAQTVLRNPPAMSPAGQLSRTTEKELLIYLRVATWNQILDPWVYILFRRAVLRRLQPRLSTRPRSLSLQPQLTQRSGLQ
Method: (§1) Amino acid substitutions were introduced into the synthetic TPα gene carried by the expression vector pMT4 as described previously, [29]. DNA sequences of all the mutated genes were verified by automated DNA sequencing. To minimize variations in transfection efficiency, the total amount transfected DNA was kept constant in all cases at 1 µg of DNA per 7×10^5 cells. The wild type TP or mutant genes were expressed in COS-1 cells using a DEAE-dextran based transient transfection method, [29], and in HEK293T cells using lipofectamine 2000 (Invitrogen). Except unless specified, the membranes prepared from COS-1 cells were used for radioligand binding assays and immunoblots. For intracellular calcium determination assays and immunofluorescence imaging, HEK293T cells were used. For transient transfections of HEK293T cells using the plasmid pMT4, lipofectamine 2000 (Invitrogen) mediated transfection was used as described by the manufacturer. Membranes were prepared using Buffers A and B and as described previously, [29]. The protein concentration in the resuspended membrane pellet was determined using a modified DC protein assay kit from Bio-Rad Laboratories (Hercules, CA).
(§2) Changes in intracellular calcium were measured by using the fluorescent calcium sensitive dye Fluo-4NW (Invitrogen). After 6–8 hours of transient transfection of HEK293T cells using lipofectamine 2000, 100,000 viable cells were plated into each well of a 96-well tissue culture treated BD-falcon optilux plates. Cells mock transfected with vector pMT4 alone were used as a negative control. Following 24 hours of incubation at 37°C, the media was removed and cells were incubated with the dye Fluo-4NW (Invitrogen) containing 77 µg/ml of probenecid for 1 hour, as recommended by the manufacturer. […] Dose–response curves were generated and EC50 values calculated by nonlinear regression analysis using PRISM software version 5.0 (GraphPad Software Inc, San Diego, CA) after subtracting the responses of mock-transfected cells stimulated with same concentrations of agonists.

TP A160V mutant = molecular target: T2, TP A160V mutant (Homo sapiens, UniProt P21731, A160V)
T2 construct: expressed in transfected cells; HEK293T (calcium assays)
T2 sequence (P21731 1-343 A160V): T1 sequence (P21731 1-343 A160S) with S160V
Method: as §1, §2

TP G164A mutant = molecular target: T3, TP G164A mutant (Homo sapiens, UniProt P21731, G164A)
T3 construct: expressed in transfected cells; HEK293T (calcium assays)
T3 sequence (P21731 1-343 G164A): T1 sequence (P21731 1-343 A160S) with S160A, G164A
Method: as §1, §2

TP V110A mutant = molecular target: T4, TP V110A mutant (Homo sapiens, UniProt P21731, V110A)
T4 construct: expressed in transfected cells; HEK293T (calcium assays)
T4 sequence (P21731 1-343 V110A): T1 sequence (P21731 1-343 A160S) with V110A, S160A
Method: as §1, §2

[1] = molecular target: T5, WT-TP (wild type human thromboxane A2 receptor TPα) (Homo sapiens, UniProt P21731)
T5 construct: expressed in transfected cells; HEK293T (calcium assays)
T5 sequence (P21731 1-343): T1 sequence (P21731 1-343 A160S) with S160A
Method: as §1, §2

Question: With `CCCCC[C@H](O)/C=C/[C@@H]1[C@@H](C/C=C\CCCC(=O)O)[C@H]2CO[C@@H]1C2` [U46619] as the compound, how does the EC50 (TP A160S mutant) read?
Answer: 9.3 ± 0.3 nM

Question: And the EC50 (TP A160V mutant)?
Answer: 9.5 ± 0.2 nM

Question: And the EC50 (TP G164A mutant)?
Answer: 2.5 ± 0.2 nM

Question: What about the EC50 (TP V110A mutant) of the same compound?
Answer: 2.7 ± 0.2 nM

Question: What about the EC50 [1] of the same compound?
Answer: 13 nM and 13.1 nM
